Legend:
[1] = test system: Prostaglandin E2 (PGE2); assay: Assay of PGE2 in keratinocytes treated with 10 μg/mL PMA; type: cell-based, human; details: 0.1 μM; for PGE2 Mean / PGE2 Increase (%): 24 h pretreatment; for PGE2 Mean: then 10 μg/mL PMA overnight; for PGE2 Increase (%): versus PMA
Experimental: (§1) Release of the cytokines Interleukin-1 beta (IL1β) and Prostaglandin E2 (PGE2) was analysed. […] Inflammation was then induced by addition of 10 μg/mL PMA overnight. An assay of IL1β and PGE2 was then performed in the cell culture supernatants. In parallel, the number of biologically active cells was determined by a neutral red assay. The amount of cytokine measured for each condition was normalised to the number of living cells determined by the neutral red assay. The significance of the results was verified by a one-factor analysis of variance followed by Tukey's test (GraphPad PRISM software version 5.02, GraphPad Software, San Diego Calif. USA).

[2] = test system: Interleukin-1 beta (IL1β); assay: Assay of IL1β in keratinocytes treated with 10 μg/mL PMA; type: cell-based, human; details: 0.1 μM, 24 h pretreatment; for IL1Beta Mean: then 10 μg/mL PMA overnight; for IL1Beta Increase (%): versus PMA
Experimental: as §1

[3] = test system: Normal human keratinocytes; assay: Production of reactive oxygen species (DCFH-DA) in keratinocytes treated with H2O2; type: cell-based; details: for ROS Mean: 24 h preincubation and during 100 μM H2O2 20 min, normalised to living cells; for ROS Increase (%): versus 100 μM H2O2; for ROS production following H2O2 treatment (in words): antioxidant references, 10 μM quercetin or 500 μM vitamin C
Experimental: The antioxidant effect of the polyphenol-enriched extract of Vitex negundo is evaluated using the incorporation of DCFHDA (2′,7′-dichlorofluorescin diacetate) into keratinocytes in culture. This molecule is a nonfluorescent marker in an unoxidised state. Under oxidising conditions (in this case stress induced by hydrogen peroxide, H2O2), DCFHDA will be degraded to DCF, a molecule which will emit fluorescence. […] Normal human keratinocytes were preincubated for 24 hours in the presence of 0.0005%, 0.001% and 0.005% (w/v) concentrations of the polyphenol-enriched extract of Vitex negundo, and 0.016%, 0.03% and 0.16% monopropylene glycol (controls corresponding to the solvent concentrations contained in the concentrations of Vitex negundo extract studied), 10 μM quercetin or 500 μM vitamin C (the latter two molecules serving as antioxidant reference). The cells are then treated for 1 hour in the presence of 0.5 mM DCFH-DA. Oxidation is induced by addition of 100 μM H2O2 for 20 minutes. A second treatment with the tested products is performed simultaneously with H2O2 stress (at the same concentrations as the pretreatment). Lastly, a measurement of fluorescence density (DFU) corresponding to the amount of ROS is performed using a microplate reader. In parallel, the number of biologically active cells was determined by a neutral red assay. The amount of ROS (reactive oxygen species) measured for each condition was normalised to the number of living cells determined by the neutral red assay. The significance of the results was verified by a one-factor analysis of variance followed by Tukey's test (GraphPad PRISM software version 5.02, GraphPad Software, San Diego Calif. USA).

[4] = test system: human sensory neuron/old keratinocyte cocultures; assay: Neurite length of sensory neurons in neuron/keratinocyte co-cultures; type: cell-based; details: 50 ng/mL
Experimental: Sensory neurons are derived from hiPS cells obtained from human fibroblasts. hiPS cells were cocultured with keratinocytes […]. The co-cultures were treated with the Vitex negundo extract at various concentrations (0.003%, 0.001%, 0.0005%, 0.0001%, 0.00005%, 0.00001% (w/v)), with 0.1% monopropylene glycol (extraction solvent control) and with 50 ng/mL nerve growth factor (NGF) serving as positive reference for dendrite elongation.
After 6 days of co-culture, the cells were fixed with 2% paraformaldehyde solution and then labelled with an anti-β-tubulin antibody. Labelling was observed using a fluorescence microscope and 20 images were acquired per co-culture. The length of the sensory neuron projections was measured and normalised by the number of labelled cell bodies. All statistics were done using the t-test and the ANOVA test (*p<0.05; **p<0.01; ***p<0.001).

Compound	PGE2 Mean [1]	PGE2 Increase (%) [1] [%]	IL1Beta Mean [2]	IL1Beta Increase (%) [2] [%]	ROS production following H2O2 treatment (in words) [3]	other results
C[C@@H]1C[C@H]2[C@@H]3CCC4=CC(=O)C=C[C@]4(C)[C@@]3(F)[C@@H](O)C[C@]2(C)[C@@]1(O)C(=O)CO [Dexamethasone, dexamethasone]	1339.332 (pg/mL)/OD neutral red	−43	0.120 (pg/mL)/OD neutral red	−34		
COc1ccc2c(c1)c(CC(=O)O)c(C)n2C(=O)c1ccc(Cl)cc1 [Indometacin, indomethacin]	416.328 (pg/mL)/OD neutral red	−82	0.172 (pg/mL)/OD neutral red	−5		release of PGE2 (in words) ([1]; pretreatment for 24 hours): significantly decreased
O=c1c(O)c(-c2ccc(O)c(O)c2)oc2cc(O)cc(O)c12 [quercetin]					significantly decreased	ROS Mean ([3]; 10 μmol/L): 24411 fluorescence units; ROS Increase (%) ([3]; 10 μmol/L): −82%
O=C1O[C@H]([C@@H](O)CO)C(O)=C1O [vitamin C]					significantly decreased	ROS Mean ([3]; 500 μM): 11940 fluorescence units; ROS Increase (%) ([3]; 500 μM): −91%
NGF: nerve growth factor (NGF) serving as positive reference for dendrite elongation						total neurite length and neurite length per cell (in words) [4]: significantly increased; Neurite length per cell ([4]; 6 days of co-culture, control cells 143 ± 16): 212 ± 23 (*) arbitrary units; Total neurite length ([4]; 6 days of co-culture, control cells 6865 ± 633): 10393 ± 1849 (**) arbitrary units

— patent US20190008757A1, “DERMATOLOGICAL OR COSMETIC COMPOSITIONS CONTAINING A POLYPHENOL?ENRICHED EXTRACT OF VITEX NEGUNDO” (Laboratoires Expanscience, priority 2016, published 2019)
